pIC50: −log10 of the molar value.
Tested on: 966289-007-R4-J1-PDC complex spheroid viability
Test: Anticancer human tumor 966289-007-R4-J1-PDC patient-derived pancreatic adenocarcinoma cell line growth inhibition [RAS]
Settings: for pIC50: curve of first compound; for viability, T/C: stronger effect = lower value
How it was run: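 Tumour cells grown as complex spheroids with HUVEC endothelial cells and mesenchymal stem cells, treated with RAS pathway inhibitor combinations. Each agent spans half-log steps from near clinical Cmax, or 10 microM where Cmax is unknown.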

[1] = second compound 0.00316 µM, first compound 0.0316 µM
[2] = second compound 0.00316 µM, first compound 0.1 µM
[3] = second compound 0.01 µM, first compound 0.0316 µM
[4] = second compound 0.01 µM, first compound 0.1 µM
[5] = second compound 0.0316 µM, first compound 0.0316 µM
[6] = second compound 0.0316 µM, first compound 0.1 µM
[7] = second compound 0.1 µM, first compound 0.0316 µM
[8] = second compound 0.1 µM, first compound 0.1 µM
[9] = second compound 0.316 µM, first compound 0.0316 µM
[10] = second compound 0.316 µM, first compound 0.1 µM
[11] = second compound 1 µM, first compound 0.0316 µM
[12] = second compound 1 µM, first compound 0.1 µM
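Note: spheroids exposed to agents for one week before readout.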
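Throughout, for viability, T/C: percent viability relative to DMSO vehicle control wells as 100%.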

CC(C)NCC(C(=O)N1CCN(c2ncnc3c2C(C)CC3O)CC1)c1ccc(Cl)cc1 (centres undefined) + C=CC(=O)N1CCN(c2nc(OCC3CCCN3C)nc3c(F)c(-c4nc(N)cc(C)c4C(F)(F)F)c(Cl)cc23)C(C)C1 showed a pIC50 (second compound 0.00316 µM) of 5.25, a pIC50 (second compound 0.01 µM) of 5.29 and a pIC50 (second compound 0.0316 µM) of 5.23. It also gave a pIC50 (second compound 0.1 µM) of 5.26, a pIC50 (second compound 0.316 µM) of 5.22 and a pIC50 (second compound 1 µM) of 5.27. For the same compound, the viability, T/C [1] was 99.8%, the viability, T/C [2] was 85.1% and the viability, T/C (second compound 0.00316 µM, first compound 0.316 µM) was 112%. It also gave a viability, T/C (second compound 0.00316 µM, first compound 1 µM) of 101%, a viability, T/C (second compound 0.00316 µM, first compound 3.16 µM) of 70.1% and a viability, T/C (second compound 0.00316 µM, first compound 10 µM) of 29.5%. The viability, T/C [3] was 105%, the viability, T/C [4] was 96.7% and the viability, T/C (second compound 0.01 µM, first compound 0.316 µM) was 118%. For the same compound, the viability, T/C (second compound 0.01 µM, first compound 1 µM) was 99.5%, the viability, T/C (second compound 0.01 µM, first compound 3.16 µM) was 61.9% and the viability, T/C (second compound 0.01 µM, first compound 10 µM) was 34.3%. The viability, T/C [5] was 99.7%, the viability, T/C [6] was 110% and the viability, T/C (second compound 0.0316 µM, first compound 0.316 µM) was 126%. It also gave a viability, T/C (second compound 0.0316 µM, first compound 1 µM) of 104%, a viability, T/C (second compound 0.0316 µM, first compound 3.16 µM) of 67.2% and a viability, T/C (second compound 0.0316 µM, first compound 10 µM) of 35.1%. It also gave a viability, T/C [7] of 116%, a viability, T/C [8] of 104% and a viability, T/C (second compound 0.1 µM, first compound 0.316 µM) of 132%. It also gave a viability, T/C (second compound 0.1 µM, first compound 1 µM) of 110%, a viability, T/C (second compound 0.1 µM, first compound 3.16 µM) of 63.2% and a viability, T/C (second compound 0.1 µM, first compound 10 µM) of 35.4%. For the same compound, the viability, T/C [9] was 106%, the viability, T/C [10] was 97.1% and the viability, T/C (second compound 0.316 µM, first compound 0.316 µM) was 127%. For the same compound, the viability, T/C (second compound 0.316 µM, first compound 1 µM) was 107%, the viability, T/C (second compound 0.316 µM, first compound 3.16 µM) was 67.5% and the viability, T/C (second compound 0.316 µM, first compound 10 µM) was 35.9%. It also gave a viability, T/C [11] of 101%, a viability, T/C [12] of 95.8% and a viability, T/C (second compound 1 µM, first compound 0.316 µM) of 115%. The viability, T/C (second compound 1 µM, first compound 1 µM) was 90.1%, the viability, T/C (second compound 1 µM, first compound 3.16 µM) was 62.9% and the viability, T/C (second compound 1 µM, first compound 10 µM) was 35.5%.
With CC(C)n1nc(-c2ccc3oc(N)nc3c2)c2c(N)ncnc21 + C=CC(=O)N1CCN(c2nc(OCC3CCCN3C)nc3c(F)c(-c4nc(N)cc(C)c4C(F)(F)F)c(Cl)cc23)C(C)C1 the pIC50 (second compound 0.00316 µM) was 7.44, the pIC50 (second compound 0.01 µM) was 7.48 and the pIC50 (second compound 0.0316 µM) was 7.36. The pIC50 (second compound 0.1 µM) was 7.46, the pIC50 (second compound 0.316 µM) was 7.29 and the pIC50 (second compound 1 µM) was 7.53. The viability, T/C (second compound 0.00316 µM, first compound 0.000316 µM) was 116%, the viability, T/C (second compound 0.00316 µM, first compound 0.001 µM) was 83.6% and the viability, T/C (second compound 0.00316 µM, first compound 0.00316 µM) was 111%. For the same compound, the viability, T/C (second compound 0.00316 µM, first compound 0.01 µM) was 105%, the viability, T/C [1] was 54.5% and the viability, T/C [2] was 17.7%. It also gave a viability, T/C (second compound 0.01 µM, first compound 0.000316 µM) of 110%, a viability, T/C (second compound 0.01 µM, first compound 0.001 µM) of 108% and a viability, T/C (second compound 0.01 µM, first compound 0.00316 µM) of 112%. For the same compound, the viability, T/C (second compound 0.01 µM, first compound 0.01 µM) was 94.2%, the viability, T/C [3] was 51.5% and the viability, T/C [4] was 19.6%. It also gave a viability, T/C (second compound 0.0316 µM, first compound 0.000316 µM) of 123%, a viability, T/C (second compound 0.0316 µM, first compound 0.001 µM) of 113% and a viability, T/C (second compound 0.0316 µM, first compound 0.00316 µM) of 121%. It also gave a viability, T/C (second compound 0.0316 µM, first compound 0.01 µM) of 101%, a viability, T/C [5] of 62.5% and a viability, T/C [6] of 18.9%. It also gave a viability, T/C (second compound 0.1 µM, first compound 0.000316 µM) of 103%, a viability, T/C (second compound 0.1 µM, first compound 0.001 µM) of 97.3% and a viability, T/C (second compound 0.1 µM, first compound 0.00316 µM) of 106%. It also gave a viability, T/C (second compound 0.1 µM, first compound 0.01 µM) of 106%, a viability, T/C [7] of 52.4% and a viability, T/C [8] of 21.1%. It also gave a viability, T/C (second compound 0.316 µM, first compound 0.000316 µM) of 103%, a viability, T/C (second compound 0.316 µM, first compound 0.001 µM) of 82.2% and a viability, T/C (second compound 0.316 µM, first compound 0.00316 µM) of 132%. For the same compound, the viability, T/C (second compound 0.316 µM, first compound 0.01 µM) was 116%, the viability, T/C [9] was 68.4% and the viability, T/C [10] was 24.9%. It also gave a viability, T/C (second compound 1 µM, first compound 0.000316 µM) of 92.5%, a viability, T/C (second compound 1 µM, first compound 0.001 µM) of 102% and a viability, T/C (second compound 1 µM, first compound 0.00316 µM) of 111%. It also gave a viability, T/C (second compound 1 µM, first compound 0.01 µM) of 91.9%, a viability, T/C [11] of 47.1% and a viability, T/C [12] of 20.3%.

— PubChem BioAssay AID2060897 (Molecular Pharmacology Branch, DTP, NCI, 2025)
